In patent US10766855B2, “Hydroxamate triterpenoid derivatives” (VIVACELL BIOTECHNOLOGY ESPANA S.L., priority 2016, dated 2020):
Like-named read-outs stand apart in the source and are kept apart here.

Legend:
Assay type in all cases: cell-based
Nrf2 [1] = assay: Nrf2 activation/inhibition in HaCaT-ARE-Luc cells; details: for EC50: 6 h
Procedure: (§1) The HeLa-STAT3-luc cells stably transfected with the plasmid 4×M67 pTATA TK-Luc. Cells (20×10^3 cells/ml) were seeded in 96-well plates, treated with increasing concentrations of the compounds II to XIV, and of comparative compound CDDO-Me, for 15 min and then stimulated with IFN-γ 25 IU/ml. After 6 h the luciferase activity in the cell lysates was measured as indicated above. […] The HaCaT-ARE-Luc cell line contains the Nqo1 Antioxidant Response Element (ARE)-Luc reporter plasmid. ARE is activated by all members of the CNC family of factors (Nrf1, Nrf2, Nrf3 and p45 NF-E2). The cells were cultivated in 96-well plates at the concentration of 25×10^3 cells/well in a CO2 incubator at 37° C. For induction of Nrf2 activation the cells were treated with increasing concentrations of the compounds II to XV, and of comparative compound CDDO-Me, for 6 h. As a positive control the cells were treated with 0.02 mM of the antioxidant Tert-butyl-hydroquinone (TBHQ). Luciferase activity in the cell lysates was measured as indicated above and the EC50 calculated (Table III). The CHO-TGR5-CRE-Luc cells stably transfected with the pTGR5 and CRE-Luc. The CRE-responsive luciferase construct encodes the firefly luciferase reporter gene under the control of a minimal (m)CMV promoter and tandem repeats of the CRE transcriptional response element (TRE) and is useful to monitor cAMP signaling pathways activated by TGR5 agonists. Cells (1×10^4/well) were seeded in 96-well plates, treated with increasing concentrations of the compounds II to XV and CDDO-Me, for 6 h. As a positive control the cells were treated with 10 μM of LCA (lithocholic acid). Luciferase activity in the cell lysates was measured as indicated above and the EC50 calculated (Table III).

HIF-1α = HIF-1α transactivation assay in NIH-3T3-EPO-Luc fibroblast cells; details: for EC50 / Efficacy HIF-1α (IRA coefficient): 6 h stimulation; for EC50: read-out: Potency EC50 HIF-1α; for Efficacy HIF-1α (IRA coefficient): relative to 150 μM DFX
Procedure: To investigate the biological activities of the different compounds, HIF-1α transactivation assays were performed either in NIH-3T3-EPO-Luc cells (Table II) or in HaCaT-EPO-luc cells (FIG. 2). The NIH3T3-EPO-luc and HaCaT-EPO-luc cells have been stably transfected with the plasmid Epo-Luc plasmid. The EPO-Hypoxia Response Element (HRE)-luciferase reporter plasmid contains three copies of the HRE consensus sequence from the promoter of the erythropoietin gene fused to the luciferase gene. NIH3T3-EPO-luc cells were maintained at 37° C. in a humidified atmosphere containing 5% CO2 in DMEM supplemented with 10% fetal calf serum (FBS), and 1% (v/v) penicillin/streptomycin. DFX was purchased from Sigma-Aldrich (USA). Cells (1×10^4/well in 96 well plates) were seeded the day before the assay. […] After six hours of stimulation the cells were lysed in 25 mM Tris-phosphate pH 7.8, 8 mM MgCl2, 1 mM DTT, 1% Triton X-100, and 7% glycerol during 15 min at RT in a horizontal shaker. Luciferase activity is measured using a microplate luminometer (Berthold) following the instructions of the luciferase assay kit (Promega, Madison, Wis., USA).

Nrf2 [2] = assay: Nrf2 activation/inhibition in HaCaT-ARE-Luc cells
NF-κB = NF-κB inhibition in NIH-3T3-KBF-Luc cells stimulated with TNFα; details: for IC50: TNFα 30 ng/ml, 6 h
Procedure: To further study the target selectivity of the compounds described in the present invention the effect of the natural triterpenoids (OA; BA, UA, and MA), compounds II to XV of Formula (I) disclosed in present invention, and of comparative compound CDDO-Me on NF-κB inhibition, STAT-3 inhibition, Nrf2 activation and TGR5 activation was analyzed. For this study cell lines NIH-3T3-KBF-Luc, HeLa-STAT3-Luc, HaCaT-ARE-Luc and CHO-TGR5-CRE-luc were used respectively. The NIH3T3-KBF-Luc cell line stably transfected with the plasmid KBF-Luc plasmid, which contains three copies of NF-κB binding site (from major histocompatibility complex promoter), fused to a minimal simian virus 40 promoter driving the luciferase gene. Cells (1×10^4/well) were seeded in 96-well plates, treated with increasing concentrations of the compounds II to XV for 15 min and then stimulated with 30 ng/ml TNFα. After 6 h the luciferase activity in the cell lysates was measured as indicated above.

TGR5 = TGR5 activation in CHO-TGR5-CRE-Luc cells; details: for EC50: 6 h
Procedure: The CHO-TGR5-CRE-Luc cells stably transfected with the pTGR5 and CRE-Luc. […] As a positive control the cells were treated with 10 μM of LCA (lithocholic acid). Luciferase activity in the cell lysates was measured as indicated above and the EC50 calculated (Table III).

STAT3 = STAT3 inhibition in HeLa-STAT3-Luc cells stimulated with IFN-γ; details: for IC50: IFN-γ 25 IU/ml, 6 h
Procedure: as §1

Compound	IC50 (NF-κB) [µM]	EC50 (TGR5) [µM]	IC50 (STAT3) [µM]	EC50 (Nrf2 [1]) [µM]	EC50 (HIF-1α; Fibroblast) [µM]	IC50 (Nrf2 [2]) [µM]	activation of the Nrf2 pathway (in words) (Nrf2 [1])	activation of the EPO promoter as a surrogate marker of HIF-1α pathway activation (in words) (HIF-1α)	inhibition of the NF-κB pathway induced by TNFα (in words) (NF-κB)	inhibition of the STAT3 pathway induced by IFNγ (in words) (STAT3)	Efficacy HIF-1α (IRA coefficient) (HIF-1α)	EC50 (HIF-1α) [µM]	agonistic TGR5 activity (in words) (TGR5)
C=C(C)[C@@H]1CC[C@]2(C(=O)O)CC[C@]3(C)[C@H](CC[C@@H]4[C@@]5(C)CC[C@H](O)C(C)(C)[C@@H]5CC[C@]43C)[C@@H]12 [Betulinic acid, reference compound]	> 50	22.2	> 50	9.02	> 50	> 50							
COC(=O)[C@]12CCC(C)(C)C[C@H]1[C@H]1C(=O)C=C3[C@@]4(C)C=C(C#N)C(=O)C(C)(C)[C@@H]4CC[C@@]3(C)[C@]1(C)CC2 [CDDO—Me, 2-Cyano-3,12-dioxo-oleana-1,9(11)-dien-28-oic acid methyl ester, reference compound]	1.2	> 50	2.38	40.9	> 50	0.06	activated the Nrf2 pathway	does not result in activation of the HIF pathway	clearly inhibited	clearly inhibited			
CC1(C)CC[C@]2(C(=O)NO)CC[C@]3(C)C(=CC[C@@H]4[C@@]5(C)CC[C@H](O)C(C)(C)[C@@H]5CC[C@]43C)[C@@H]2C1 [Compound II, (3β) 3-Hydroxy-N-hydroxy-olean-12-en-28-amide]	> 50	> 50	> 50	> 50	16.4	> 50					0.39		
CC1(C)CC[C@]2(C(=O)NO)CC[C@]3(C)C(=CC[C@@H]4[C@@]5(C)CC/C(=N\O)C(C)(C)[C@@H]5CC[C@]43C)[C@@H]2C1 [Compound III, 3-Hydroxyimino-N-hydroxy-olean-12-en-28-amide]	> 50	> 50	> 50	23.9	3.83	> 50					0.43		
C=C(C)[C@@H]1CC[C@]2(C(=O)NO)CC[C@]3(C)[C@H](CC[C@@H]4[C@@]5(C)Cc6cn[nH]c6C(C)(C)[C@@H]5CC[C@]43C)[C@@H]12 [Compound IX, 1′H-Lup-20(29)-eno[3,2-c]pyrazol-N-hydroxy-28-amide]					2.41						0.34		
C=C(C)[C@@H]1CC[C@]2(C(=O)NO)CC[C@]3(C)[C@H](CC[C@@H]4[C@@]5(C)Cc6cnoc6C(C)(C)[C@@H]5CC[C@]43C)[C@@H]12 [Compound VIII, Lup-2-eno[2,3-d]isoxazol-N-hydroxy-28-amide]	> 50	9.62	> 50	> 50	2.58	> 50					0.55		showed agonistic TGR5 activity
C=C(C)[C@@H]1CC[C@]2(C(=O)NO)CC[C@]3(C)[C@H](CC[C@@H]4[C@@]5(C)CC=CC(C)(C)[C@@H]5CC[C@]43C)[C@@H]12 [Compound X, Lupa-2,20(29)-dien-N-hydroxy-28-amide]	> 50	> 50	> 50	> 50	3.24	> 50					0.48		
C=C(C)[C@@H]1CC[C@]2(C(=O)NO)CC[C@]3(C)[C@H](CC[C@@H]4[C@@]5(C)CC/C(=N\O)C(C)(C)[C@@H]5CC[C@]43C)[C@@H]12 [Compound XI, 3-Hydroxyimino-N-hydroxy-lup-20(29)-en-28-amide]	> 50	17.5	> 50	> 50	2.58	> 50					0.31		showed agonistic TGR5 activity
CC1(C)C2CC[C@]3(C)[C@H](C(=O)C=C4[C@H]5C[C@@](C)(C(=O)NO)CC[C@]5(C)CC[C@]43C)[C@@]2(C)CC[C@@H]1O (some centres unmarked) [Compound XX, reference compound]					> 50			do not activate the HIF-1α pathway					
CC1(C)[C@@H](O)CC[C@]2(C)[C@H]3C(=O)C=C4[C@@H]5C[C@@](C)(C(=O)O)CC[C@]5(C)CC[C@@]4(C)[C@]3(C)CC[C@@H]12 [Glycyrrethinic acid, reference compound]					> 50			do not activate the HIF-1α pathway					

Second part, led by results:

IC50 (NF-κB) [µM]	EC50 (TGR5) [µM]	IC50 (STAT3) [µM]	Compound	EC50 (Nrf2 [1]) [µM]	EC50 (HIF-1α; Fibroblast) [µM]	IC50 (Nrf2 [2]) [µM]	activation of the Nrf2 pathway (in words) (Nrf2 [1])	activation of the EPO promoter as a surrogate marker of HIF-1α pathway activation (in words) (HIF-1α)	inhibition of the NF-κB pathway induced by TNFα (in words) (NF-κB)	inhibition of the STAT3 pathway induced by IFNγ (in words) (STAT3)	Efficacy HIF-1α (IRA coefficient) (HIF-1α)	EC50 (HIF-1α) [µM]	agonistic TGR5 activity (in words) (TGR5)
> 50	> 50	> 50	CC1(C)CC[C@]2(C(=O)NO)CC[C@]3(C)C(=CC(=O)[C@@H]4[C@@]5(C)CC[C@H](O)C(C)(C)[C@@H]5CC[C@]43C)[C@@H]2C1 [Compound IV, (3β) 3-Hydroxy-11-oxo-olean-12-en-N-hydroxy-28-amide]	10	11.4	> 50					0.15		
> 50	> 50	> 50	CC(=O)O[C@H]1CC[C@]2(C)[C@H]3C(=O)C=C4[C@@H]5CC(C)(C)CC[C@]5(C(=O)NO)CC[C@@]4(C)[C@]3(C)CC[C@H]2C1(C)C [Compound V, (3β) 3-Acetyloxy-11-oxo-olean-12-en-N-hydroxy-28-amide]	> 50	6.71	> 50					0.16		
> 50	> 50	> 50	CC1(C)CC[C@]2(C(=O)NO)CC[C@]3(C)C(=CC[C@@H]4[C@@]5(C)CC=CC(C)(C)[C@@H]5CC[C@]43C)[C@@H]2C1 [Compound VI, Oleana-2,12-dien-N-hydroxy-28-amide]	> 50		> 50					0.16	5	
> 50	5.91	> 50	C[C@H]1[C@H](C)CC[C@]2(C(=O)NO)CC[C@]3(C)C(=CC[C@@H]4[C@@]5(C)CC[C@H](O)C(C)(C)C5CC[C@]43C)[C@H]12 (stereo partly drawn) [Compound XII, (3β) 3-Hydroxy-N-hydroxy-urs-12-en-28-amide]	> 50	7.69	> 50					0.17		showed agonistic TGR5 activity
> 50	> 50	> 50	C[C@H]1[C@H](C)CC[C@]2(C(=O)NO)CC[C@]3(C)C(=CC[C@@H]4[C@@]5(C)CC/C(=N/O)C(C)(C)C5CC[C@]43C)[C@H]12 (some centres unmarked) [Compound XIII, 3 Hydroxyimino-N-hydroxy-urs-12-en-28-amide]	> 50	8.93	> 50					0.10		
> 50		> 50	C[C@H]1[C@H](C)CC[C@]2(C(=O)O)CC[C@]3(C)C(=CC[C@@H]4[C@@]5(C)CC[C@H](O)C(C)(C)[C@@H]5CC[C@]43C)[C@H]12 [Ursolic acid, reference compound]	38.4	> 50	> 50		None of the natural triterpenoids					
